{
  "source": "patent US20080269121A1",
  "about": "“Methods and Compositions Involving A1c Subunit of L-Type Calcium Channels in Smooth Muscle Cells” (The Board of Regents of the University of Texas System, priority 2005, published 2008)",
  "type_in_all_cases": "cell-based, human",
  "key": {"[1]": {"system": "α1C subunit of L-type Ca^2+ channels", "test": "Q-PCR of α1C mRNA expression in HCCSMC", "text": "Primary cultures of HCCSMC: Human tissue was obtained from the descending and sigmoid colons with approval of the University of Texas Medical Branch Institutional Review Board from disease free margins of resected segments from patients undergoing surgery for colon cancer. The circular muscle layer was separated from the taenia coli and lamina propria with a tissue slicer. The circular muscle layer was collected in ice-cold HEPES buffer (in mM: 120 NaCl, 2.6 KH2S04, 4 KCl, 2 CaCl2, 0.6 MgCl2, 25 HEPES, 14 glucose and 2.1% essential amino acid mixture, pH 7.4). Two successive digestions with papain and collagenase, as described previously by Shi and Sarna, were used to disperse smooth muscle cells. The cells were cultured in RPMI 1640 (Gibco/Invitrogen, Carlsbad, Calif.) supplemented with 10% fetal bovine serum in the presence of 100 units/mL of penicillin G, 100 μg/mL of streptomycin sulfate and 0.25 μg/mL of amphoteracin B. The culture medium was changed every three days. Cells in passages 3 to 5 were used in all experiments. All cells were cultured in serum-free medium for at least 15 h prior to experiments to eliminate the possible effects of growth factors. […] The cultures of colonic smooth muscle cells retain their contractile phenotype. Each experiment used cells or muscle strips from at least three different subjects.\nTotal RNA was extracted from cells using the Qiagen RNeasy kit (Qiagen, Valencia, Calif.) by following the manufacturer's protocol. The cDNAs were made using the Superscript First-Strand Synthesis System (Invitrogen, Carlsbad, Calif.).\nQuantitive real-time-polymerase chain reaction (Q-PCR). Q-PCR assay is employed to determine gene expression using TaqMan technology on Applied Biosystems 7000 sequence detection system (UTMB Real-time PCR Core Facility). Applied Biosystems Assays-By-Design containing a 20× assay mix of primers and TaqMan MGB probes (FAMTM dye-labeled) are used for a target gene and the endogenous control, human 18s RNA. These assays were designed using primers that span exon-exon junctions so as not to detect genomic DNA. All primer and probe sequences were searched against the Celera data base to confirm specificity. The primer and probe sequences used were as follows: human Cav1.2 channel oα1C intermediate form (Cav1.2b) probe spanning exon 1b and exon 2, […] (SEQ ID NO:4): forward primer, […] (SEQ ID NO:5): reverse primer, […] (SEQ ID NO:6). Human Cav1.2 channel α1C long form (Cav1.2a) probe spanning exon 1a and exon 2: […] (SEQ ID NO:7): forward primer, […] (SEQ ID NO:8): reverse primer. […] (SEQ ID NO:6)."}, "p65 subunit": {"system": "p65 subunit", "test": "Nuclear abundance and binding of NF-κB p65 in HCCSMC", "protocol": "Cytoplasmic and nuclear protein, and RNA extraction: Cytoplasmic and nuclear proteins were prepared as described earlier by Shi et al. Briefly, the cells were washed twice with phosphate-buffered saline solution and then with buffer A (in mM: 10 HEPES, 1.5 MgCl2, 10 KCl, 0.5 dithiothreitol, 0.5 phenylmethylsulfrenyl fluoride [PMSF]; 10 ng/mL leupeptin, and 10 ng/mL aprotinin). The cells were resuspended in 25 μL of buffer A containing 0.25% NP-40 and incubated at 4° C. for 10 minutes. After centrifugation at 12,000 g for 10 minutes, the supernatant was collected as cytoplasmic extract. The nuclear pellet was resuspended in 20 μL of buffer C (in mM: 20 HEPES, […], 1.5 MgCl2, 0.2 ethylenediaimetetraacetic acid (EDTA), 0.5 DTT, 0.5 PMSF; 24% glycerol, 10 ng/mL leupeptin, and 10 ng/mL aprotinin) and incubated on ice with frequent vortexing for 15 minutes. The samples were centrifuged at 14,000 g for 10 minutes, and the supernatant (nuclear extract) was transferred to a fresh tube with 5 volumes of buffer D (in mM: 20 HEPES, 0.2 EDTA, 50 KCl, 0.5 DTT, 0.5 PMSF; 20% glycerol, 10 ng/mL leupeptin, and 10 ng/mL aprotinin). The protein concentration was determined by using the Bio-Rad assay kit (Bio-Rad Laboratories, Hercules, Calif.).\nElectrophoretic mobility shift assay. […]"}, "HCCSMC": {"system": "HCCSMC", "test": "Cytosolic free Ca^2+ measurement (fura-2 AM) in HCCSMC", "details": "treatment for 24 h, by", "protocol": "Cytosolic free Ca^2+ measurement: Cytosolic calcium level ([Ca^2+]i) was measured in a wide-field imaging system at the UTMB core Optical Imaging Laboratory using the Ca^2+-sensitive fluorescent dye fura 2-AM (Molecular Probes, Eugene, Oreg.). HCCSMC cultured on cover slips were incubated with 1 μM fura 2-AM for 45 min at 37° C. in a modified HEPES buffer (pH 7.4) containing (in mM): 10 HEPES, 125 NaCl, 5 KCl, 1 CaCl2, 0.5 MgSO4, 5 glucose. Cover slips with cells were washed with fresh medium and mounted on the stage of a Nikon TE200 inverted microscope (Nikon Instruments, Lewisville, Tex.) equipped with a CoolSNAP HQ cooled-CCD monochrome digital camera (Roper Scientific, Tucson Ariz.). Cells were examined under a super-fluor 20×0.75 NA objective during exposure to alternating 340 and 380 nm excitation light (DG4 illuminator system, Sutter Instrument, Novato, Calif.), and the intensity of light emission at 510 nm was measured. The light intensities and their ratio, F340/F380, which reflects changes in Ca^2+ concentration, were followed simultaneously in several single cells in the field. The acquisition process was controlled by the Metafluor image acquisition software (Universal Imaging Corp. Downingtown, Pa.)."}, "CREB": {"system": "CREB", "test": "CREB phosphorylation in HCCSMC", "protocol": "Western immunoblotting. Each lane is loaded with 10 μg protein and size-separated on a 10% SDS polyacrylamide gel. After blotting, the nitrocellulose membranes are blocked with 10% non-fat dried milk at 4° C. overnight. The blots are incubated with appropriate dilution of the antibody at 4° C. overnight and appropriate dilution of designated secondary antibody at room temperature for 1 h. β-actin is used as internal control."}},
  "note": "Entries after “also recorded” stand apart in the source; their conditions may differ.",
  "data": [
    {"substance": "vasoactive intestinal polypeptide [VIP]", "values": [
      {"measurement": "induction of α1C mRNA expression", "setting": "[1]; HCCSMC", "value": "induced expression; also recorded: enhanced the mRNA of α1C"},
      {"measurement": "duration of α1C mRNA transcription and translation after treatment", "setting": "[1]; HCCSMC, FIG. 3", "value": "at least 24 h"},
      {"measurement": "increase of α1C mRNA", "setting": "[1]; at 6 h, adult human colonic circular smooth muscle cells", "value": "about 50%"},
      {"measurement": "abundance of p65 in the nucleus, VIP and TNFα versus TNFα alone", "setting": "p65 subunit", "value": "did not seem to be different"},
      {"measurement": "Ca^2+ influx", "setting": "HCCSMC", "value": "enhanced Ca^2+ influx"},
      {"measurement": "duration of CREB phosphorylation", "setting": "CREB", "value": "lasted about one hour"},
      {"measurement": "phosphorylation of CREB", "setting": "CREB; HCCSMC", "value": "phosphorylated upon exposure to VIP; also recorded: transient phosphorylation"}
    ]}
  ]
}
